Here are results for 21 compounds from PubChem BioAssay (NCI).

Among the test systems are CCRF-CEM leukemia; OVCAR-5 ovarian; SK-MEL-2 melanoma; MOLT-4 leukemia; OVCAR-4 ovarian; HT29 colon; SNB-78 CNS; HOP-92 NSCLC; DLD-1 colon; HCC-2998 colon.
What all share (experiment): NCI anticancer screen, dose series, 48 h

Each structure is given as a SMILES string. Where “and” joins values, the source holds several entries; their conditions need not be identical. Equal values may be shown once.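 Exposure lasted 48 hours, with cells grown in 96-well plates and compounds tested at five concentrations. Here, GI50 denotes the concentration required for 50% inhibition of growth. Definition used: TGI = concentration required for complete inhibition of growth.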 A value given as a limit tells only on which side of the number the result lay.

With `COc1cc2ccc(CC#N)cc2cc1OC`, the TGI in the assay on CCRF-CEM leukemia, in the assay on OVCAR-5 ovarian, in the assay with SK-MEL-2 melanoma, in the assay with MOLT-4 leukemia, with OVCAR-4 ovarian and in the assay on HT29 colon was more than 100 µM each time. Moreover, the TGI with SNB-78 CNS, in the assay on HOP-92 NSCLC and in the assay on DLD-1 colon was more than 100 µM each time.

With `Cn1c2ccccc2c2cc(-c3ccccc3)c3c(c21)C(=O)C=CC3=O`, the TGI in the assay with CCRF-CEM leukemia was more than 48.5 µM; in the assay with OVCAR-5 ovarian, 35.2 µM; in the assay on SK-MEL-2 melanoma, 49.9 µM; with MOLT-4 leukemia it was 21.8 µM; in the assay on OVCAR-4 ovarian, 41.3 µM; with HT29 colon, 42.7 µM. In addition, the TGI in the assay on SNB-78 CNS was more than 64.8 µM; with HOP-92 NSCLC, 29.9 µM; in the assay with HCC-2998 colon, more than 88.9 µM; in the assay on DLD-1 colon, 27.7 µM.

`CCOC(=O)CNC(SC)=C(C#N)C#N`: the TGI with CCRF-CEM leukemia, in the assay with OVCAR-5 ovarian, in the assay with MOLT-4 leukemia, in the assay with OVCAR-4 ovarian, in the assay on HT29 colon and in the assay with SNB-78 CNS was more than 100 µM in each case. Further, the TGI with HOP-92 NSCLC, in the assay on HCC-2998 colon and in the assay on DLD-1 colon was more than 100 µM throughout.

With `O=C(N/C(=C\c1ccc([N+](=O)[O-])cc1)c1nc2[nH]c(=S)[nH]c(=O)c2[nH]1)c1ccccc1`, the TGI with CCRF-CEM leukemia, in the assay on OVCAR-5 ovarian, in the assay with SK-MEL-2 melanoma, in the assay with MOLT-4 leukemia, with OVCAR-4 ovarian and with HT29 colon was more than 100 µM each time. The TGI in the assay with SNB-78 CNS, with HOP-92 NSCLC, in the assay with HCC-2998 colon and with DLD-1 colon was more than 100 µM throughout.

On to `C(=C1\CCC/C(=C/c2ccccc2)C1=NNc1ccccc1)/c1ccccc1`, for which the TGI with CCRF-CEM leukemia, with OVCAR-5 ovarian, with SK-MEL-2 melanoma, in the assay on MOLT-4 leukemia, in the assay with OVCAR-4 ovarian and with HT29 colon was more than 100 µM each time. Besides, the TGI with SNB-78 CNS, in the assay on HOP-92 NSCLC, with HCC-2998 colon and in the assay on DLD-1 colon was more than 100 µM in each case.

In the case of `CSC(=S)N(C)NC(=O)c1cccc(C(=O)NN(C)C(=S)SC)n1`, the TGI in the assay with CCRF-CEM leukemia was more than 100 µM; with OVCAR-5 ovarian, more than 100 µM; with MOLT-4 leukemia, more than 100 µM; with OVCAR-4 ovarian, 41 µM; in the assay with HT29 colon, more than 100 µM; with SNB-78 CNS, more than 100 µM. Further, the TGI in the assay with HOP-92 NSCLC is 55 µM; in the assay with DLD-1 colon, more than 100 µM.

Turning to `COc1cc(NCC(C#N)C#N)ccc1N=Nc1ccc([N+](=O)[O-])cc1`, the TGI with CCRF-CEM leukemia, with OVCAR-5 ovarian, in the assay on SK-MEL-2 melanoma, in the assay with MOLT-4 leukemia, in the assay with OVCAR-4 ovarian and in the assay with HT29 colon was more than 100 µM each time. For the same compound, the TGI in the assay with SNB-78 CNS, in the assay with HCC-2998 colon and with DLD-1 colon was more than 100 µM in each case.

As to `CCCNC(=O)c1cc2ccccc2cc1C(=O)OC`, the TGI with CCRF-CEM leukemia, in the assay on OVCAR-5 ovarian, in the assay with SK-MEL-2 melanoma, in the assay on MOLT-4 leukemia, in the assay with OVCAR-4 ovarian and in the assay with HT29 colon was more than 100 µM throughout. Also, the TGI with SNB-78 CNS, in the assay with HOP-92 NSCLC, in the assay on HCC-2998 colon and in the assay on DLD-1 colon was more than 100 µM in each case.

Take `Cn1c(=O)c(C(c2ccccc2)c2c(O)c3ccccc3n(C)c2=O)c(O)c2ccccc21`: the TGI with OVCAR-5 ovarian is 93.1 µM; with SK-MEL-2 melanoma, more than 100 µM; in the assay on MOLT-4 leukemia it was more than 100 µM; in the assay on OVCAR-4 ovarian, more than 100 µM; in the assay on HT29 colon it was more than 100 µM; in the assay on SNB-78 CNS, more than 100 µM. The TGI with HOP-92 NSCLC, in the assay with HCC-2998 colon and in the assay on DLD-1 colon was more than 100 µM throughout.

Take `COc1cc(C2[C@H]3C(=O)N(c4ccc(Cc5ccc(N6C(=O)[C@@H]7ON(c8ccccc8)C(c8cc(OC)c(OC)c(OC)c8)[C@@H]7C6=O)cc5)cc4)C(=O)[C@H]3ON2c2ccccc2)cc(OC)c1OC` (some centres undefined): the TGI in the assay with CCRF-CEM leukemia, in the assay on OVCAR-5 ovarian, in the assay with SK-MEL-2 melanoma, with MOLT-4 leukemia, in the assay with OVCAR-4 ovarian and in the assay with HT29 colon was more than 100 µM in each case. Moreover, the TGI with SNB-78 CNS, in the assay with HCC-2998 colon and in the assay with DLD-1 colon was more than 100 µM each time.

In the case of `Cc1cn(C2C=CC(=O)C(C)O2)c(=O)[nH]c1=O` (centres undefined), the TGI with CCRF-CEM leukemia amounted to 32.5 µM; in the assay with MOLT-4 leukemia, 40.9 µM; in the assay with HT29 colon, 33.4 µM; in the assay on SNB-78 CNS it was 35.4 µM; with HOP-92 NSCLC, 29.5 µM; in the assay on DLD-1 colon it was 29.7 µM.

On to `CC[C@](O)(C(=O)O)c1cc2n(c(=O)c1CO)Cc1cc3ccccc3nc1-2`, for which the GI50 in the assay with CCRF-CEM leukemia is less than 2.5 nM; in the assay on OVCAR-5 ovarian, 69.1 nM and 104 nM; in the assay on SK-MEL-2 melanoma, 314 nM and 390 nM; with MOLT-4 leukemia, less than 2.5 nM; in the assay with OVCAR-4 ovarian it was 305 nM and 71.5 nM; in the assay on HT29 colon it was 35.4 nM and 110 nM. The GI50 in the assay on SNB-78 CNS was 242 nM and 135 nM; with HOP-92 NSCLC, 163 nM; in the assay with DLD-1 colon, 311 nM and 337 nM. Further, the TGI with CCRF-CEM leukemia was 4.04 µM; with OVCAR-5 ovarian, 0.784 µM and 0.501 µM; in the assay on SK-MEL-2 melanoma, 1.7 µM and 1.46 µM and 0.699 µM; in the assay on OVCAR-4 ovarian, 7.5 µM and 0.856 µM; with HOP-92 NSCLC it was 5.67 µM and 0.567 µM; in the assay on DLD-1 colon, 30 µM.

Take `COc1ccc(-c2cc(-c3ccccc3)c(C#N)c(=O)[nH]2)cc1`: the TGI in the assay with CCRF-CEM leukemia, with OVCAR-5 ovarian, in the assay on MOLT-4 leukemia, in the assay with OVCAR-4 ovarian, with HT29 colon and in the assay on SNB-78 CNS was more than 100 µM in each case. The TGI in the assay with HOP-92 NSCLC, in the assay with HCC-2998 colon and in the assay on DLD-1 colon was more than 100 µM in each case.

For the compound `CN(C)c1nc(N(C)C)nc(N(C)CN(C)c2nc(N(C)C)nc(N(C)C)n2)n1`, the TGI in the assay with CCRF-CEM leukemia, in the assay on OVCAR-5 ovarian, with SK-MEL-2 melanoma, with MOLT-4 leukemia, with OVCAR-4 ovarian and with HT29 colon was more than 100 µM each time. In addition, the TGI in the assay with SNB-78 CNS, in the assay on HOP-92 NSCLC, in the assay on HCC-2998 colon and in the assay on DLD-1 colon was more than 100 µM each time.

With `O=C1C2Cc3ccccc3CN2C(=O)N1CN1CCN(CN2C(=O)C3Cc4ccccc4CN3C2=O)CC1` (centres undefined), the TGI in the assay on CCRF-CEM leukemia, with OVCAR-5 ovarian, in the assay with SK-MEL-2 melanoma, with MOLT-4 leukemia, in the assay on HT29 colon and with SNB-78 CNS was more than 100 µM each time. Moreover, the TGI in the assay with HOP-92 NSCLC, with HCC-2998 colon and with DLD-1 colon was more than 100 µM throughout.

Consider `C#CCOCn1cnc2ncnc(Cl)c21`, for which the TGI in the assay with CCRF-CEM leukemia, in the assay on OVCAR-5 ovarian, in the assay on SK-MEL-2 melanoma, in the assay on MOLT-4 leukemia, in the assay with OVCAR-4 ovarian and in the assay on HT29 colon was more than 100 µM throughout. The TGI in the assay with SNB-78 CNS, in the assay with HOP-92 NSCLC, in the assay with HCC-2998 colon and in the assay on DLD-1 colon was more than 100 µM throughout.

For `CC(C)C(/C=C/c1ccccc1)=N\NC(=O)N/N=C(/C=C/c1ccccc1)C(C)C`, the TGI was more than 100 µM in the assay on CCRF-CEM leukemia; more than 100 µM in the assay with OVCAR-5 ovarian; 52 µM with SK-MEL-2 melanoma; 54.3 µM with MOLT-4 leukemia; more than 100 µM in the assay with OVCAR-4 ovarian; more than 100 µM with HT29 colon. Besides, the TGI in the assay with SNB-78 CNS is more than 100 µM; in the assay on HOP-92 NSCLC it was 91.3 µM; in the assay with HCC-2998 colon, more than 100 µM; in the assay with DLD-1 colon, more than 100 µM.

As for `CC(=O)Nc1ccc(-c2nnc(SCC(=O)Nc3ccccc3[N+](=O)[O-])o2)cc1`, the TGI in the assay on CCRF-CEM leukemia, with OVCAR-5 ovarian, in the assay with SK-MEL-2 melanoma, with MOLT-4 leukemia, in the assay on OVCAR-4 ovarian and in the assay on HT29 colon was more than 100 µM each time. Moreover, the TGI in the assay with SNB-78 CNS, with HOP-92 NSCLC and in the assay with DLD-1 colon was more than 100 µM each time.

Take `CC1(C)CCc2cc3c(cc2O1)OC(C)(C)C1c2c(ccc4c2CCC(C)(C)O4)OC31` (centres undefined): the TGI in the assay with CCRF-CEM leukemia, in the assay on OVCAR-5 ovarian, in the assay on SK-MEL-2 melanoma, in the assay with MOLT-4 leukemia, with OVCAR-4 ovarian and with HT29 colon was more than 100 µM throughout. Also, the TGI in the assay with SNB-78 CNS, in the assay on HOP-92 NSCLC and with DLD-1 colon was more than 100 µM throughout.

For `Cn1cc2ccccc2c1-c1nc(F)nc(Oc2ccc3c(c2)CC[C@@H]2C3CC[C@]3(C)C(O)CCC23)n1` (some centres undefined), the TGI came to 36.5 µM in the assay with CCRF-CEM leukemia; 33.3 µM in the assay on OVCAR-5 ovarian; 36.1 µM in the assay on SK-MEL-2 melanoma; 65.7 µM in the assay with MOLT-4 leukemia; 28.5 µM in the assay on OVCAR-4 ovarian; 36.1 µM in the assay on SNB-78 CNS. The TGI in the assay with HOP-92 NSCLC turned out to be 44.3 µM; with HCC-2998 colon, 36.4 µM; in the assay on DLD-1 colon, 30.9 µM.

As for `CNC1=C(C)C(=O)C(C)=C(C(C)(C)CC(=O)n2cc(F)c(=O)[nH]c2=O)C1=O`, the TGI with CCRF-CEM leukemia, in the assay on OVCAR-5 ovarian, in the assay on SK-MEL-2 melanoma, in the assay on MOLT-4 leukemia, in the assay with OVCAR-4 ovarian and in the assay on HT29 colon was more than 100 µM throughout. Moreover, the TGI in the assay on SNB-78 CNS, in the assay on HOP-92 NSCLC, with HCC-2998 colon and in the assay with DLD-1 colon was more than 100 µM in each case.
